Values after ≈ are worked out from the molar mass of the structure shown.
These compounds were tested on Helicobacter pylori (assay: Antibacterial activity against Helicobacter pylori assessed as bacterial colonies formation incubated for 24 hrs measured after up to 5 days culturing time by CFU counting analysis).
Type: functional

MIC | Structure (SMILES) | MBC
3 µg/mL (≈ 7.74 µM) | COc1cc(OC)c2ccn(CCCC[C@H]3CCC[C@]4(CC[C@H](C)O4)O3)c2c1 | 3 µg/mL (≈ 7.74 µM)
8.3 µg/mL (≈ 20.7 µM) | COc1cc(OC)c2ccn(CCCCC[C@H]3CCC[C@]4(CC[C@H](C)O4)O3)c2c1 | 8.3 µg/mL (≈ 20.7 µM)
> 100 µg/mL | COc1cc(OC)c2ccn(CCCCCCCC[C@H]3CCC[C@]4(CC[C@H](C)O4)O3)c2c1 | > 100 µg/mL
12.5 µg/mL (≈ 31 µM) | COc1cc(OC)c2c(c1)N(CCCC[C@H]1CCC[C@]3(CC[C@H](C)O3)O1)C(=O)C2 | 12.5 µg/mL (≈ 31 µM)
12.5 µg/mL (≈ 29.9 µM) | COc1cc(OC)c2c(c1)N(CCCCC[C@H]1CCC[C@]3(CC[C@H](C)O3)O1)C(=O)C2 | 12.5 µg/mL (≈ 29.9 µM)
16 µg/mL (≈ 34.8 µM) | COc1cc(OC)c2c(c1)N(CCCCCCCC[C@H]1CCC[C@]3(CC[C@H](C)O3)O1)C(=O)C2 | 16 µg/mL (≈ 34.8 µM)
12.5 µg/mL (≈ 30.9 µM) | COc1cc(OC)c2c(c1)[C@@H](CCCC[C@H]1CCC[C@]3(CC[C@H](C)O3)O1)OC2=O | 12.5 µg/mL (≈ 30.9 µM)
3 µg/mL (≈ 6.51 µM) | COc1cc(OC)c2c(c1)[C@@H](CCCCCCCC[C@H]1CCC[C@]3(CC[C@H](C)O3)O1)OC2=O | 3 µg/mL (≈ 6.51 µM)
2 µg/mL (≈ 4.78 µM) | COc1cc(OC)c2c(c1)[C@@H](CCCCC[C@H]1CCC[C@]3(CC[C@@H](C)O3)O1)OC2=O | 1 µg/mL (≈ 2.39 µM)
